Results as given in US20250326790A1, “PEPTIDES BINDING TO HYPOXIA INDUCIBLE FACTORS AND THEIR USE” (UNIVERSITY OF SOUTHAMPTON, priority 2021, published 2025).
*1 amine or outer side, *2 acyl side, *3 side chain or, on linkers, in order; H or OH if unused. Where a SMILES comes first, the peptide text is derived from it. [ ]: non-standard residue; d: D form. Phe(4-I) = N[C@@H](Cc1ccc(I)cc1)C(=O)O; hLeu = CC(C)CC[C@H](N)C(=O)O; CO = O=C([*:1])[*:2]

Target: recombinantly expressed PAS-B domain of HIF-1α (Homo sapiens (Human), UniProt Q16665)
Sequence (Q16665 228-298): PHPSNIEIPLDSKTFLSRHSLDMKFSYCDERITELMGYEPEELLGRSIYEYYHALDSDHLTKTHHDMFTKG
Assay: MST binding affinity to PAS-B domain of HIF-1α
Settings: microscale thermophoresis, 50 nM labelled protein, 10% DMSO
Method: MST experiments were performed on a Monolith NT.115 system (Nanotemper Technologies GmbH), in assay buffer containing 50 nM labelled protein, 10% DMSO and 0.05% TWEEN-20. MST measurements were performed using 50% LED and 50% MST power.

For `CC(C)CC[C@H](NS(=O)(=O)c1cc(Cl)c(Cl)s1)C(=O)N[C@@H](Cc1ccc(I)cc1)C(=O)N[C@@H](CC(N)=O)C(=O)NCCCCl` [Example 58], the Kd was > 500 µM.

In the case of `CC(C)CC[C@H](NS(=O)(=O)c1ccc(Cl)s1)C(=O)N[C@@H](Cc1ccc(I)cc1)C(=O)N[C@@H](CS)C(=O)NCCCCCN` [Example 40], the Kd is reported as 100 µM.

For `CNC[C@H](NC(=O)[C@H](Cc1ccc(I)cc1)NC(=O)[C@H](CCC(C)C)NS(=O)(=O)c1cc(Cl)c(Cl)s1)C(=O)NCCCCl` [Example 72], the Kd was > 500 µM.

With `CC(C)CC[C@H](NS(=O)(=O)c1cc(Cl)c(Cl)s1)C(=O)N[C@@H](Cc1ccc(I)cc1)C(=O)N[C@@H](CS(N)(=O)=O)C(=O)NCCCCl` [Example 68] the Kd was > 500 µM.

`CC(C)CC[C@H](NS(=O)(=O)c1cc(Cl)c(Cl)s1)C(=O)N[C@@H](Cc1ccc(I)cc1)C(=O)N[C@@H](CC(F)(F)F)C(=O)NCCCCl` [Example 66] was tested, and the Kd was > 125 µM.

In the case of `Cc1c(S(=O)(=O)N[C@@H](CCC(C)C)C(=O)N[C@@H](Cc2ccc(I)cc2)C(=O)N[C@@H](CS)C(N)=O)sc2ccc(Cl)cc12` [Example 28], the Kd is reported as 8 µM.

`CC(C)CC[C@H](NS(=O)(=O)c1cc(Cl)c(Cl)s1)C(=O)N(C)[C@@H](Cc1ccc(I)cc1)C(=O)N[C@@H](CN1CCOCC1)C(=O)NCCCCl` [Example 67] was tested, and the Kd was > 500 µM.

`CC(C)CC[C@H](NS(=O)(=O)c1cc(Cl)c(Cl)s1)C(=O)N(C)[C@@H](Cc1ccc(I)cc1)C(=O)N[C@@H](CN)C(=O)NCCCCl` [Example 59] was tested, and the Kd was > 500 µM.

`CNC(=O)N[C@@H](CCC(C)C)C(=O)N[C@@H](Cc1ccc(I)cc1)C(=O)N[C@@H](CS)C(N)=O` [Example 5] ({NHMe-CO}-[hLeu]-[Phe(4-I)]-Cys-NH2) was tested, and the Kd was > 50 µM.
